Key:
[1] = tested on: NF-κB; assay: NF-κB luciferase reporter assay; format: cell-based; conditions: Homo sapiens; SW480 cells stably transfected with NF-κB luciferase reporter gene, induced by LPS; mean ± SD (n = 3); read-out: NF-κB Activation IC50
Method: SW480-NF-κB cells were seeded at a density of 5 × 10^4 cells/well in 24-well plates and incubated with circumdatins with or without LPS stimulation for 6 h. The κB-dependent luciferase reporter activity in cell extracts was monitored using an automated microplate reader.

[2] = molecular target: T1, acetylcholinesterase (AChE) from Electrophorus electrics (Electric eel) (Electrophorus electricus, UniProt O42275); assay: biochemical; conditions: modified Ellman's colorimetric method; mean ± SD (n = 3)
T1 construct: purchased Sigma Chemical Co. (St Louis, MO, USA)
From the text: Dulbecco's modified Eagle medium (DMEM), α-minimum essential medium (α-MEM) and fetal bovine serum (FBS) were provided by Hyclone (Waltham, USA). 3-(4,5-Dimethylthiazol-2-yl)-2,5-diphenyltetrazolium bromide (MTT), acetylcholinesterase (AChE) from Electrophorus electrics (Electric eel) and lipopolysaccharide (LPS) (Escherichia coli 055: B5) were provided by Sigma Chemical Co. (St Louis, MO, USA). Enzyme-linked immunosorbent assay (ELISA) kits for IL-1β and TNF-α and Griess reagent for nitric oxide (NO) assay kit were provided by ExCell Bio (Shanghai, China). Antibodies for TLR4, MyD88, JNK, p-JNK, p38, p-p38, ERK, p-ERK, IκB, p-IκB, IKK, p-IKK, NF-κB, STAT3、p-STAT3、Jak2, p-Jak2, GAPDH and Histone H3 were purchased from Cell Signaling Technology (Danvers, USA). Antibodies for iNOS and COX-2 were provided by Abcam (Cambridge, UK).
(§1) AChE activities in vitro and in vivo were assessed by a modified Ellman's spectrophotometric method ([Szwajgier, 2015]). Briefly, AChE (80 μl) in phosphate buffer (Na2HPO4/NaH2PO4, pH 8.0) and compound (20 μl) diluted in same phosphate buffer were added to 96 microplates as the reaction mixture. The mixture was incubated at 37°C for 30 min before addition of 10 μl 5,5′-dithiobis (2-nitrobenzoic acid) (DTNB) (3 mM) and 10 μl acetylthiocholine iodide (ATCI) (15 mM). After incubation for 20 min, the absorbance was detected at 412 nm using a microplate spectrophotometer (Thermo Scientifics, USA). […] The inhibitory rate of AChE was calculated, and the IC50 values were calculated by GraphPad Prism® 5.0 software (GraphPad Inc., San Diego, USA).

[3] = tested on: primary cortical neurons co-cultured with LPS-activated primary microglia; assay: Microglia-neuron co-culture neuroprotection (MTT, TUNEL, crystal violet); format: cell-based, Sprague Dawley rats
Method: For co-culture experiments, primary microglia cells were seeded on the upper insert of Transwell chambers (pore size 3 μm; Corning Costar, USA) in 24-well plates, and neurons were grown in the lower plate wells. Circumdatin D was added to primary microglia cells 1 h before LPS stimulation. After 48 h of coculture, the neurons in the bottom of 24-well plate were collected for the following experiments.
[…] Then, the cells were stained with 1% crystal violet solution for 15 min. Images were captured with an optical microscope. Five different fields were selected for each group for observing cellular morphology.
[…] TUNEL staining was performed to detect apoptosis using in situ cell death detection Kit (Roche Diagnostics, Mannheim, Germany). Hochest 33342 staining was used to detect total cell nuclei. Images were taken and analyzed on a confocal microscopy (Leica, Germany). Six fields from each sample were randomly selected and analyzed.

[4] = molecular target: T2, AChE in primary cortical neurons (Rattus norvegicus, UniProt P37136); assay: AChE activity in LPS-treated primary neurons (modified Ellman); format: cell-based; conditions: 1 μg/ml LPS, 1–100 μM, 48 h
T2 construct: primary cortical neurons were isolated from embryos of pregnant Sprague Dawley rats of E-18; endogenous in cells; host or cells: primary cortical neurons from E-18 Sprague Dawley rat embryos
Method: as §1

[5] = tested on: AChE in C. elegans CL4176; assay: AChE activity of C. elegans CL4176; format: in vivo, Caenorhabditis elegans; conditions: CL4176 nematodes
Method: AChE activity of C. elegans was determined by the method as described ([Xin et al., 2013]). Briefly, approximately 1,000 nematodes with or without circumdatin D treatment were collected and then triturated mechanically in PBS (50 mM, pH 7.4) on ice. The lysate supernatant was collected by centrifugation and AChE activity in the supernatant was determined using modified Ellman method. The protein concentration was determined by BCA protein assay. AChE activity was expressed as U/mg proteins.

[6] = tested on: TLR4 and MyD88; assay: Western blot of TLR4 and MyD88 in LPS-induced BV-2 cells; format: cell-based, murine; conditions: 1 μg/ml LPS, 10, 20, 50 μM, 6 h
Method: Total cell proteins were lysed using cell extraction buffer containing phenylmethylsulfonyl ﬂuoride and protease inhibitor cocktail. The cytosolic and nuclear extracts were collected using the Nuclear and Cytosolic extraction kit. The protein extracts were separated on SDS-PAGE and transferred to PVDF membranes (Millipore). The membrane was blocked with 5% nonfat milk for 1 h at room temperature, and incubated with indicated primary antibodies overnight at 4°C. After washing, the membrane was incubated with secondary antibodies conjugated to horseradish peroxidase (Proteintech, USA) at room temperature for 1 h. Then, the proteins of interest were visualized utilizing a chemiluminescence (ECL) detection system. The relative optical densities were analyzed using the Image Master™ 2D Elite software.

T1 sequence (O42275 24-633): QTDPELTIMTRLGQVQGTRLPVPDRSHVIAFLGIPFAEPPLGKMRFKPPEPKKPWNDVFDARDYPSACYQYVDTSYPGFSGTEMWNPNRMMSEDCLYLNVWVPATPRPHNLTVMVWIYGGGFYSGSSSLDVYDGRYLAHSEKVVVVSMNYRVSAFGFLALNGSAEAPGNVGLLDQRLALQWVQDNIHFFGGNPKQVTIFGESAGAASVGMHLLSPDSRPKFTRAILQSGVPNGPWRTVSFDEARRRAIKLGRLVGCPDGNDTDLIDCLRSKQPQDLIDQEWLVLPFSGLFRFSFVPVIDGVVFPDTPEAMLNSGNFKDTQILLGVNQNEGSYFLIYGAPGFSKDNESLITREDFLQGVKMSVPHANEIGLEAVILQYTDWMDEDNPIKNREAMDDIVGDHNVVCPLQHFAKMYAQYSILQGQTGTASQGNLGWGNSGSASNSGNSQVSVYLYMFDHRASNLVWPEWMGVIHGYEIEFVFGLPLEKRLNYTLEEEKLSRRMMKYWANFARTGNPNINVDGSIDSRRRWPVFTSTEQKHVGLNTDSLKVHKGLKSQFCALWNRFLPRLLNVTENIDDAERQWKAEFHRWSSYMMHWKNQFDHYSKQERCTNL
T2 sequence (P37136 32-614): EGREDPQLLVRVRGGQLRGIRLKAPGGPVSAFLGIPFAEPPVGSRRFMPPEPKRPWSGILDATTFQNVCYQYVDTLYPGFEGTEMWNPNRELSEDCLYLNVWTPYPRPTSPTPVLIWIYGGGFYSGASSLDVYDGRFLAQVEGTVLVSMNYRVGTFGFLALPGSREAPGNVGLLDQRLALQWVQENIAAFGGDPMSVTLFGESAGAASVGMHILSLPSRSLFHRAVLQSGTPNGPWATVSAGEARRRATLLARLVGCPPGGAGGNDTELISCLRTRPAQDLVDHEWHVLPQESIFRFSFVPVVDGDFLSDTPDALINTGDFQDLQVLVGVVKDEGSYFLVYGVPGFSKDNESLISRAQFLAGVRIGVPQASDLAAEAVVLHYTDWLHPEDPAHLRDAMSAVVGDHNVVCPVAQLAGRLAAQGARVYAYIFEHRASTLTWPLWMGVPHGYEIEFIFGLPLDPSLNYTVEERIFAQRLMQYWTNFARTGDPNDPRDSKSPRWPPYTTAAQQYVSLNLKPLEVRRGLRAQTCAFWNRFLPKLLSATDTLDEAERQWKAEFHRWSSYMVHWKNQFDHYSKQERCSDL

## COc1ccc2c(c1)C(=O)N1CCC[C@H]1c1nc3ccc(OC)cc3c(=O)n1-2 [circumdatin D]
[1]
  IC50: 8.7 ± 1.3 µM
[2]
  IC50: 2400 ± 500 nM
[3]; microglia treated prior to LPS stimulation (1 μg/ml), 48 h
  neuron death in co-cultures (MTT): reduced neuron death
[3]; microglial-neuronal co-culture, 1 μg/ml LPS
  neuron apoptosis, TUNEL-positive cells: significantly reduced the numbers of TUNEL-positive cells
[3]; microglial-neuronal co-culture, 1 μg/ml LPS, 48 h
  neuronal morphology (crystal violet staining): markedly reversed the neuronal injury
[4]
  LPS-induced AChE activity in primary neuronal cells: markedly reduced the LPS-induced AChE activities
[5]
  AChE activity elevated upon temperature upshift: significantly attenuated these changes in a dose-dependent manner
[6]
  LPS-induced TLR4 expression: dramatically reversed the LPS-induced TLR4 expression
  MyD88 expression: suppressed the MyD88 expression

— publication PMC7261837, “Circumdatin D Exerts Neuroprotective Effects by Attenuating LPS-Induced Pro-Inflammatory Responses and Downregulating Acetylcholinesterase Activity In Vitro and In Vivo” (Frontiers in Pharmacology, 2020)
